Consider 1 compound from US7811760B2, “Vector and method for detecting the change in transcription amount” (priority 2006, dated 2010).

In test [1] the target is T1, aryl hydrocarbon receptor (Rattus norvegicus, UniProt P41738, Q794H).
T1 construct: The SD-line rat AhR gene-coding region was amplified from the reverse-transcribed sample by means of PCR; V5-His (C-terminal tag of vector pcDNA4/V5-His B); expressed in transfected cells; host or cells: mouse neuroblastoma Neuro2a, transient transfection with LIPOFECTAMINE 2000
T1 sequence (P41738 10-853 Q794H): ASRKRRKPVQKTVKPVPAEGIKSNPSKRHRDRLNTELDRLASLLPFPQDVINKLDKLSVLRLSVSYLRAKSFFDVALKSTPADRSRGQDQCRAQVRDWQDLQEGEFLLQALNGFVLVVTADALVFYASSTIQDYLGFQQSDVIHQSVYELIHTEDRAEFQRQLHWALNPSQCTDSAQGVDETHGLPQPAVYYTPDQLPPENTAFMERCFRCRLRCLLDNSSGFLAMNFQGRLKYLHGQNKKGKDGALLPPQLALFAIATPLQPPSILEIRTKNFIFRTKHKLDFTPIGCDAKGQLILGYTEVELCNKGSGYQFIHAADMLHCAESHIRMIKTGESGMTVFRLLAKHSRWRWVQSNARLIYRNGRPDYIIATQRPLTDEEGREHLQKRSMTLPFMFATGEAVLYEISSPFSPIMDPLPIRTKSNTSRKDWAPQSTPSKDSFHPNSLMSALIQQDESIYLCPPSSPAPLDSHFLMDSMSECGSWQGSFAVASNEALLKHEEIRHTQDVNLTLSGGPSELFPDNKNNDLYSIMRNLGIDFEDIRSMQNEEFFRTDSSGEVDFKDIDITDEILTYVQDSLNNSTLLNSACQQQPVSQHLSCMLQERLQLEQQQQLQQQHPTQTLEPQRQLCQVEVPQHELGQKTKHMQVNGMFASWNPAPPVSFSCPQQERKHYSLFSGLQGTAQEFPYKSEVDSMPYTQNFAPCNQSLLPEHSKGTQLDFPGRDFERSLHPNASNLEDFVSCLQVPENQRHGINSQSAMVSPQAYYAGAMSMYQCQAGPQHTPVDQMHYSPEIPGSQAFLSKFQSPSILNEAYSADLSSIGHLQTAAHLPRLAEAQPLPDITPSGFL
Put plainly: Reporter gene assay in Neuro2a with pTHE60/Luc and pTHE60×3/Luc (SEQ ID No: 4). The format is cell-based, SD-line rat. The settings on record: 1 nM and 10 nM TCDD; pTHE60/Luc versus pTHE60×3/Luc. As for the experimental part:
In Example 9, the region of SEQ ID No: 4 was used as the TCDD-responsive region in the TH transcriptional regulatory region. The region of SEQ ID No: 4 was amplified by PCR using the region of SEQ ID No: 3 as a template and using the following primers: Forward primer: 5′-[…]-3′ (SEQ ID No: 29); and Reverse primer: 5′-[…]-3′ (SEQ ID No: 30). Pyrobest DNA polymerase was used in the PCR. Recognition sequences for restriction enzymes KpnI (for forward primer) and NheI (for reverse primer) were added to the terminal of the respective primers, for the purpose of facilitating incorporation of the PCR amplified fragment into the vector. The terminal of the region of SEQ ID No: 4 amplified by PCR was phosphorylated with 5′-polynucleotide kinase (Takara Bio Inc.), and then, the regions of SEQ ID No: 4 were ligated in tandem with each other by using a ligation kit. The ligated DNA fragments were digested with restriction enzymes KpnI and NheI, and subjected to agarose gel electrophoresis. DNA fragment consisting of a single copy of the region of SEQ ID No: 4 and DNA fragment consisting of three copies of the regions of SEQ ID No: 4 linked in tandem were excised from the gel based on their molecular weight, and purified with a QIAQUICK Gel Extraction Kit. […]
A general note: In a reporter assay the amount or activity of a reporter protein is the signal.

In test [2] the test system is ligand-dependent transcription factors (AhR, ER, and AR). Put plainly: Reporter gene (luciferase) assay in Neuro2a cells carrying PGV-THp03 (SEQ ID No: 2). The format is cell-based, mouse. The settings on record: 10 nM, 30 hours, PGV-THp03, AhR-introduced Neuro2a. As for the experimental part:
A vector (PGV-THp03) containing the upstream region (SEQ ID No: 2) ranging from about −300 to 0 position of the TH gene-coding region, which was prepared in Example 4, was used. Neuro2a was used as the cell.
Two kinds of vectors, pcDNA4-rAhR (Example 1) and pcDNA4/V5-His/lacZ (Invitrogen), were introduced into Neuro2a, together with PGV-THp03. pcDNA4-rAhR was introduced for constitutive expression of the SD-line rat AhR gene (SEQ ID No: 10) in the cell, and pcDNA4/V5-His/lacZ was introduced for normalization of the vector transfection efficiency.
The vectors were introduced into the cell by using LIPOFECTAMINE 2000 (Invitrogen). The cell was cultured on a 24-well plate, and the operation was performed according to the manual of Invitrogen. A total of […] of vectors (0.4 μg of PGV-THp03, 0.2 μg of pcDNA4-rAhR, and 0.2 μg of pcDNA4/V5-His/lacZ) suspended in 50 μl of OPTI-MEM medium and 2 μl of LIPOFECTAMINE 2000 suspended in 50 μl of OPTI-MEM medium were mixed, and incubated at room temperature for 20 minutes to form nucleic acid/LIPOFECTAMINE 2000 complex. The obtained suspension containing the complex was added to Neuro2a cell culture, which has been previously cultured overnight in 500 μl of DF1:1 medium (containing 10% fetal calf serum) (0.8×10^5 cells were seeded on previous day), to allow incorporation of the vectors into the cell. The cell was cultured additionally for 24 hours after transfection, for the purpose of improvement in vector incorporation efficiency and expression of the protein derived from the introduced vectors.
As the test substances, vinclozolin (10 μM), dimethyl phthalate (10 μM), benzopyrene (1 μM), and dioxin (TCDD) (10 nM) were used. After the transfection and the additional incubation for 24 hours, the medium was replaced with a fresh medium containing any one of the test substances, and the cell was cultured additionally for 30 hours. After 30 hours, the medium was removed from the 24-well plate, and the cell was washed with phosphate buffer twice. 100 μl of a protein extraction solution (manufactured by TOYO B-NET) was added to each well, and the cell suspension was stirred gently at room temperature for 15 minutes and then frozen at −80° C. The frozen solution was thawed at room temperature, and the resulting solution was recovered in a tube and diluted ten times with a protein extraction reagent containing 1 mg/ml bovine serum albumin luciferase and β-galactosidase activities in the diluted solution were measured, and the expression amount of the reporter gene was calculated as a relative luminescence intensity per 1 ng of β-galactosidase per second (RLU/sec/ng β-galactosidase).

For `Clc1cc2c(cc1Cl)Oc1cc(Cl)c(Cl)cc1O2` [TCDD, 2,3,7,8-tetrachlorodibenzo-p-dioxine], the “activity of the test substance on transcriptional regulation, by number of regions of SEQ ID No: 4” value in test [1] was “increased according to the increase in the number of the regions incorporated into the vector”. In test [2], the luciferase activity increase result was “approximately 1.4 times”.
